Reference: US9481915B2, “Method of screening drugs that promote LOXL1 expression” (SHANGHAI TENTH PEOPLE'S HOSPITAL, priority 2012, dated 2016)

How the values were obtained:
Assay type in all cases: cell-based
[1] = tested on: extracellular matrix crosslinking in human fibroblasts; test: ELISA of desmosine and hydroxylproline (elastin and collagen crosslinking) in human fibroblast lines HF1 and HF2; details: different emodin concentrations
Protocol: Two human fibroblast cell lines integrating PLOXL1-ZsGreen components (HF1 and HF2) are inoculated at a density of 20%, incubated overnight (37° C., 5% CO2). Then, emodin is added into the culture medium. Detect the desmosine by ELISA method to determine the effects of different emodin concentrations to elastin crosslinking. This example determines the effects of different emodin concentrations to collagen crosslinking by detecting the contents of hydroxylproline through ELISA method. […] Thus, emodin promotes the crosslinking of extracellular matrix protein in human fibroblasts widely.

[2] = tested on: LOXL1 in human skin tissue; test: Real-time and western blot of LOXL1 and elastin monomer/dimer in cultured human skin tissue
Protocol: Emodin was added into the culture medium of human skin tissue. Detect the LOXL1 level in human skin tissue and elastin crosslinking level during 1˜3 days after emodin treatment. Detect the mRNA level and protein level of LOXL1 using Real-time and western blot methods, as well as detecting the amount of monomer and dimer of elastin. Wherein, the control with DMSO solvent added only is normalized to 1, data are calculated as Mean±SEM of three independent test values. *p<0.01, ***P<0.0001.

human LOXL1 promoter = test: PLOXL1-ZsGreen reporter: green fluorescence intensity of human fibroblasts
Protocol: S3. Drug screening: Inoculate the said human fibroblasts integrating PLOXL1-ZsGreen component into culture medium, incubate overnight. Dissolve the analyte into DMSO as 0.2-2 mg/ml, and dilute into 1:200, then add it into the cell culture medium, and its final concentration will be […]. After incubating overnight (37° C., 5% CO2), detect the green fluorescence intensity of these cells. The screening method of present invention decides if the analyte added stimulates the activity of human LOXL1 promoter effectively, and increases the expression of LOXL1, thus promotes the crosslinking of extracellular matrix protein, by checking if the green fluorescence intensity is increased.
Inoculate the said human fibroblasts integrating PLOXL1-ZsGreen component into culture medium with a density of 20%, keep adherent overnight. […] After culturing overnight (37° C., 5% CO2), detect the green fluorescence intensity of these cells. The present invention decides if the Chinese herbal extracts added stimulate the activity of human LOXL1 promoter effectively by checking if the green fluorescence intensity is increased. […]
Inoculate the said stably expressing human fibroblast strain integrating a expression cassette of PLOXL1-ZsGreen with a 20% density into media, keep adherent overnight (37° C., 5% CO2), detect the green fluorescence intensity of these cells. […]

LOXL1 = test: Real-time and western blot of LOXL1 mRNA/protein and elastin dimer in human fibroblast lines HF1 and HF2; details: for expression of LOXL1 (mRNA and protein): 4 μM emodin, overnight; for formation of elastin dimer intermediate: different emodin concentrations
Protocol: Two human fibroblast cell lines integrating PLOXL1-ZsGreen components (HF1 and HF2) are inoculated at a density of 20%, incubated overnight (37° C., 5% CO2). […] After cultured overnight, Real-time and western blot are used to detect the mRNA level and protein level in LOXL1. Wherein, the one added DMSO solvent only works as the control, and is normalized to 1, data are calculated as Mean±SEM of three independent test values, *P<0.05; **P<0.001; ***P<0.0001. […] In these two cell lines, the expression of LOXL1 is not only linearly correlated to transcriptional level, but to LOXL1 protein level, and accomplishing elastin dimer intermediates formation.

## Cc1cc(O)c2c(c1)C(=O)c1cc(O)cc(O)c1C2=O [emodin]
[1]; HF1, FIG. 6a1
  desmosine intermediates (elastin crosslinking): increase with the increasing concentrations of emodin added
[1]; HF1, FIG. 6a2
  hydroxylproline intermediate (collagen crosslinking): also increases with the increasing concentrations of emodin added
[1]; HF2, FIG. 6b1
  desmosine intermediates (elastin crosslinking): increase with the increasing concentrations of emodin added
[1]; HF2, FIG. 6b2
  hydroxylproline intermediate (collagen crosslinking): also increases with the increasing concentrations of emodin added
[2]; 4 μM emodin, FIG. 7b
  LOXL1 protein level: significantly promotes the LOXL1 protein level
[2]; 4 μM emodin, FIG. 7c
  elastin intermediate dimers: increase of intermediate dimers
  elastin monomers: decrease of elastin monomers
[2]; different emodin concentrations, 1-3 days, FIG. 7a
  LOXL1 mRNA level: increases as the emodin concentration increases
Human LOXL1 promoter; Example 4, FIG. 4a, 4 μM emodin
  activity of human LOXL1 promoter (ZsGreen fluorescent intensity): obvious promotion to the activity of human LOXL1 promoter
Human LOXL1 promoter; Example 4, FIG. 4c, DMSO control normalized to 1
  fluorescent intensity of ZsGreen vs emodin concentration: increases with the concentration of emodin, with a significant linear relationship
LOXL1; HF1 cell line, FIGS. 5a1-5a2
  expression of LOXL1 (mRNA and protein): significantly promotes the expression of LOXL1
LOXL1; HF1 cell line, FIG. 5a3
  formation of elastin dimer intermediate: promotion of different emodin concentration to the expression of LOXL1 and the formation of elastin dimer intermediate
LOXL1; HF2 cell line, FIGS. 5b1-5b2
  expression of LOXL1 (mRNA and protein): significantly promotes the expression of LOXL1
LOXL1; HF2 cell line, FIG. 5b3
  formation of elastin dimer intermediate: promotion of different emodin concentration to the expression of LOXL1 and the formation of elastin dimer intermediate
